Measured values taken from US9365583B2, “Substituted pyrazoles and uses thereof” (Genentech, Inc., priority 2013, dated 2016).

These compounds were tested against T1, N-terminally GST-tagged DLK (catalytic domain amino acid 1-520) (Homo sapiens, UniProt Q12852) (assay: DLK TR-FRET inhibition assay). Conditions: 5 nM GST-DLK, 40 nM HIS-MKK4 K131M substrate, 30 μM ATP, 60 minutes at ambient temperature.
T1 construct: N-terminally GST-tagged DLK (catalytic domain amino acid 1-520); purchased Carna Bioscience
T1 sequence (Q12852 1-520): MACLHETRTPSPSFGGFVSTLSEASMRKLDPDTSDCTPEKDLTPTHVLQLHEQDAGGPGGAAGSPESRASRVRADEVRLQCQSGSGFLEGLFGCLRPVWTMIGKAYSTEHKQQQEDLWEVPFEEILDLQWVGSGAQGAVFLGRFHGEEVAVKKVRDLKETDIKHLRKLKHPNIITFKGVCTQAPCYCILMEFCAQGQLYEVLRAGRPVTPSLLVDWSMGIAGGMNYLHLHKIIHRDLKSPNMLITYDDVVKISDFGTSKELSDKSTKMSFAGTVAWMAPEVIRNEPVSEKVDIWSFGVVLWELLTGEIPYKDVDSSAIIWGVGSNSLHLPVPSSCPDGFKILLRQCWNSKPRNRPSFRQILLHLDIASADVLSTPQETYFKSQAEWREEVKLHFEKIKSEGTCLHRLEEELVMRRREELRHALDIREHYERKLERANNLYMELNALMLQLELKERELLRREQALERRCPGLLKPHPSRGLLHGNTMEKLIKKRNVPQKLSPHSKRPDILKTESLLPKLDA
Assay type: biochemical
Description: DLK TR-FRET inhibition assay: DLK kinase reactions (20 μL) containing 5 nM N-terminally GST-tagged DLK (catalytic domain amino acid 1-520) (Carna Bioscience), 40 nM N-terminally HIS-tagged MKK4 K131M substrate, and 30 μM ATP in kinase reaction buffer (50 mM HEPES, pH 7.5, 0.01% Triton X-100, 0.01% Bovine γ-Globulins, 2 mM DTT, 10 mM MgCl2 and 1 mM EGTA), and testing compound 1:3 serial diluted starting at 20 uM were incubated at ambient temperature for 60 minutes in 384 well OptiPlate (Perkin Elmer). To quench kinase reactions and detect phosphorylated MKK4, 15 μL of TR-FRET antibody mixture containing 2 nM anti-phosphorylated MKK4 labeled with Europium cryptate (Cisbio) and 23 nM anti-HIS labeled with D2 (Cisbio) in detection buffer (25 mM Tris pH 7.5, 100 mM NaCl, 100 mM EDTA, 0.01% Tween-20, and 200 mM KF) was added to the reaction mixture. The detection mixture was incubated for 3 hours at ambient temperature and the TR-FRET was detected with an EnVision multilabel plate reader (Perkin-Elmer) using the LANCE/DELFIA Dual Enh label from Perkin-Elmer (excitation filter: UV2 (TRF) 320 and emission filters: APC 665 and Europium 615).

Row | Compound | Ki [nM]
1 | 3-(difluoromethoxy)-5-(5- ((1R,3r,5S,6r)-3-(3-fluoroazetidin-1- yl)bicyclo[3.1.0]hexan-6-yl)-1- isopropyl-1H-pyrazol-3-yl) pyridin-2-amine [compound 60] | 2.26
2 | 5-(1-isopropyl-5-((1R,3r,5S,6R)- 3-((R)-2-methylmorpholino) bicyclo[3.1.0]hexan-6-yl)-1H- pyrazol-3-yl)-3-(trifluoromethoxy) pyridin-2-amine [compound 12] | 1.77
3 | 5-(1-isopropyl-5-((1R,3r,5S,6R)- 3-((R)-2-methylmorpholino) bicyclo[3.1.0]hexan-6-yl)-1H- pyrazol-3-yl)-3-(trifluoromethyl) pyridin-2-amine [compound 2] | 2.06
4 | 5-(1-isopropyl-5-((1R,3s,5S,6R)- 3-((R)-2-methylmorpholino) bicyclo[3.1.0]hexan-6-yl)-1H- pyrazol-3-yl)-3-(trifluoromethoxy) pyridin-2-amine [compound 11] | 1.87
5 | 5-(1-isopropyl-5-((1R,3s,5S,6R)- 3-((R)-2-methylmorpholino) bicyclo[3.1.0]hexan-6-yl)-1H- pyrazol-3-yl)-3-(trifluoromethyl) pyridin-2-amine [compound 1] | 2.28
6 | CC(C)n1nc(-c2cnc(N)c(OC(F)F)c2)cc1[C@H]1[C@@H]2CC(F)(CN(C)C)C[C@@H]21 (mixture of isomers) [compound 178, 3-(difluoromethoxy)-5-(5-((1R, 5S,6r)-3-((dimethylamino)methyl)-3-fluorobicyclo[3.1.0]hexan-6-yl)-1-isopropyl-1H-pyrazol-3-yl)pyridin-2-amine] | 2.1
7 | CC(C)n1nc(-c2cnc(N)c(C(F)(F)F)c2)cc1[C@@H]1[C@H]2CC3C(OCCN3C)[C@H]21 (mixture of isomers) [compound 156, (±)-5-(1-isopropyl-5-(4-methyl-octahydro-2H-cyclopropa[4,5]cyclopenta[1,2-b][1,4]oxazin-6-yl)-1H-pyrazol-3-yl)-3-(trifluoromethyl)pyridin-2-amine] | 13.5
8 | CC(C)n1nc(-c2cnc(N)c(OC(F)F)c2)cc1[C@H]1[C@@H]2C[C@H]3CN(C)C[C@H]3[C@@H]21 (racemic) [compound 163, (±)-3-(difluoromethoxy)-5-(1-isopropyl-5-((3aS,3bR,4S,4aR,5aR)-2-methyloctahydro-1H-cyclopropa[3,4]cyclopenta[1,2-c]pyrrol-4-yl)-1H-pyrazol-3-yl) pyridin-2-amine] | 2.8
9 | CC(C)n1nc(-c2cnc(N)c(C(F)(F)F)c2)cc1[C@@H]1[C@H]2CC[C@@H](N3CCOCC3)[C@H]21 (single isomer, unassigned) [compound 138, 5-(1-isopropyl-5-(2-morpholinobicyclo[3.1.0]hexan-6-yl)-1H-pyrazol-3-yl)-3-(trifluoromethyl) pyridin-2-amine] | 12.9
10 | CC(C)n1nc(-c2cnc(N)c(C(F)(F)F)c2)cc1[C@@H]1[C@H]2CC[C@@H](N3CCOCC3)[C@H]21 (single isomer, unassigned) [compound 139, 5-(1-isopropyl-5-(2-morpholinobicyclo[3.1.0]hexan-6-yl)-1H-pyrazol-3-yl)-3-(trifluoromethyl) pyridin-2-amine] | 65.7
11 | CC(C)n1nc(-c2cnc(N)c(C(F)(F)F)c2)cc1[C@@H]1[C@H]2CC[C@H](O)[C@H]21 (single isomer, unassigned) [compound 142, 6-(3-(6-amino-5-trifluoromethylpyridin-3-yl)-1-isopropyl-1H-pyrazol-5-yl)bicyclo[3.1.0]hexan-2-ol] | 62.2
12 | CC(C)n1nc(-c2cnc(N)c(C(F)(F)F)c2)cc1[C@@H]1[C@H]2CC[C@H](O)[C@H]21 (single isomer, unassigned) [compound 143, 6-(3-(6-amino-5-trifluoromethylpyridin-3-yl)-1-isopropyl-1H-pyrazol-5-yl)bicyclo[3.1.0]hexan-2-ol] | 31.9
13 | CC(C)n1nc(-c2cnc(N)c(OC(F)F)c2)cc1[C@H]1[C@@H]2CC(N3CCOCC(F)C3)C[C@@H]21 (single isomer, unassigned) [compound 169] | 4.1
14 | COCC1(F)CCN(C2C[C@@H]3C(c4cc(-c5cnc(N)c(OC(F)F)c5)nn4C(C)C)[C@@H]3C2)C1 (single isomer, unassigned) [compound 171] | 5.4
15 | CC(C)n1nc(-c2cnc(N)c(OC(F)F)c2)cc1C1[C@H]2CC(N3CCOCC(F)C3)C[C@@H]12 (single isomer, unassigned) [compound 172] | 4.2
16 | CC(C)n1nc(-c2cnc(N)c(OC(F)F)c2)cc1C1[C@H]2CC(N3CCOCC(F)C3)C[C@@H]12 (single isomer, unassigned) [compound 173] | 4.5
17 | COCC1(F)CCN(C2C[C@@H]3C(c4cc(-c5cnc(N)c(OC(F)F)c5)nn4C(C)C)[C@@H]3C2)C1 (single isomer, unassigned) [compound 174] | 5.2
18 | CC(C)n1nc(-c2cnc(N)c(OC(F)F)c2)cc1C1[C@H]2CC(N3CCOCC(F)C3)C[C@@H]12 (single isomer, unassigned) [compound 175] | 5.5
19 | CC(C)n1nc(-c2cnc(N)c(C(F)(F)F)c2)cc1[C@H]1[C@@H]2CC(N3CCN4CCOCC4C3)C[C@@H]21 (single isomer, unassigned) [compound 184] | 2.1
20 | CC(C)n1nc(-c2cnc(N)c(C(F)(F)F)c2)cc1[C@H]1[C@@H]2CC(C#N)C[C@@H]21 (single isomer, unassigned) [compound 190] | 4.8
21 | CC(C)n1nc(-c2cnc(N)c(C(F)(F)F)c2)cc1[C@H]1[C@@H]2CC(C#N)C[C@@H]21 (single isomer, unassigned) [compound 191] | 7.8
22 | CC(C)n1nc(-c2cnc(N)c(C(F)(F)F)c2)cc1[C@H]1[C@@H]2CC(N3CCN4CCOCC4C3)C[C@@H]21 (single isomer, unassigned) [compound 196] | 3.4
23 | CC(C)n1nc(-c2cnc(N)c(C(F)(F)F)c2)cc1[C@H]1[C@@H]2CC3(C[C@@H]21)CN(C)CCO3 (single isomer, unassigned) [compound 197] | 1.3
24 | CC(C)n1nc(-c2cnc(N)c(OC(F)F)c2)cc1[C@H]1[C@@H]2C[C@@H](N3CCN4CCCC4C3)C[C@@H]21 (single isomer, unassigned) [compound 258] | 0.9
25 | CC(C)n1nc(-c2cnc(N)c(OC(F)F)c2)cc1[C@H]1[C@@H]2C[C@@H](N3CCN4CCCC4C3)C[C@@H]21 (single isomer, unassigned) [compound 259] | 0.7
26 | CC(C)n1nc(-c2cnc(N)c(C(F)(F)F)c2)cc1[C@H]1[C@@H]2C[C@@H](N3CCN4CCCC4C3)C[C@@H]21 (single isomer, unassigned) [compound 261] | 1.2
27 | CC(C)n1nc(-c2cnc(N)c(C(F)(F)F)c2)cc1[C@H]1[C@@H]2C[C@@H](N3CCN4CCCC4C3)C[C@@H]21 (single isomer, unassigned) [compound 263] | 1
28 | CC(C)n1nc(-c2cnc(N)c(C(F)(F)F)c2)cc1[C@H]1[C@@H]2CC(N3CC4COCC4C3)C[C@@H]21 (single isomer, unassigned) [compound 270] | 2.8
29 | CC(C)n1nc(-c2cnc(N)c(C(F)(F)F)c2)cc1[C@H]1[C@@H]2CC(N3CC4COCC4C3)C[C@@H]21 (single isomer, unassigned) [compound 277] | 2.3
